Reference: publication PMC8970883, “Simultaneous Determination of Seven Phenolic Acids, Two Flavonoids, and Tussilagone in Rat Plasma after Administration of Farfarae Flos Extract by LC–MS/MS” (Evidence-based Complementary and Alternative Medicine : eCAM, 2022)
Where two headings read alike, the source gives them in different places.

Columns and labels:
[1] = Pharmacokinetic study in rats after intragastric administration of Farfarae Flos extract (plasma, LC-MS/MS); assay type: in vivo; details: for Cmax / Tmax / half-life / MRT last / MRT inf: male; for Cmax: rat, plasma, po; for Tmax / half-life / MRT last / MRT inf / AUC(0–24h) / AUC(0–∞): rat plasma; for MRT last: read-out: MRT(0–24h); for MRT inf: read-out: MRT(0–∞)
Text: A high-performance liquid chromatography instrument was used to separate three types of compounds (Agilent 1200 series, USA). The HPLC instrument is composed of four parts; a G1322A degasser, G1312A Bin Pump, G1367B auto-sampler, and G1316A thermostatic column compartment. Three types of compounds and three internal standards (ISs) were separated on an Eclipse Plus C18 (4.6 × 100 mm, 1.8 μm). The mobile phase was composed of formic acid aqueous solution (A) and formic acid methanol solution (B). The concentration of formic acid in both A and B solution was 0.1% (v/v). The gradient elution was as follows. The proportion of 10% B changes to 40% from 0 min to 3mins. 40% B changes to 90% from 16 to 18 min. B is maintained at 100% from 19 to 28 min. The flow rate, sample injected volume, and column temperature was 0.35 mL·min^−1, 10 μL, and 35°C, respectively.
Quantitative analysis of all samples was performed on Sciex API 3200 with an electrospray ionization (ESI) source. Analyst 1.6.2 workstation for instrument operation, data management, and data analysis were employed to analyze and process data (AB, Sciex). Ten analyzed compounds and three ISs were optimized during multiple reactions monitoring (MRM). […] MRM parameters of CCLA were set at 353.1-191.0. […] MRM parameters of IAB were set as 515.3-353.2 and MRM parameters of IAA were set at 515.2-353.0. MRM parameters of IAC and tussilagone were set as 515.3-352.9, 391.4-217.4, respectively.
Twenty male rats (4 months old, weight 240 ± 20 g) were obtained commercially from Vital River Laboratory Animal Company (Beijing, China). Before the pharmacokinetic experiments, they were free to eat food and drink water for one week for adapting to the environment when the dark light cycle was 12 hours, while the temperature was maintained at 25 ± 5°C. The animal experiments were guided and strictly approved by Tianjin Hospital animal ethics committee. They were fasted for 12 hours and could only drink freely water before intragastric administration of Farfarae Flos extract. Ten rats in each group were employed for eliminating data variation caused by different animal individuals. All rats in groups 1 and group 2 were orally administrated one time at two dosages of Farfarae Flos extract (carboxymethyl cellulose sodium salt (0.5%) was used to suspend the extract to prepare the administration solution 3.90 g·kg^−1 and 7.80 g·kg^−1), respectively. Rats were anesthetized with ether. The heparinized 1.5 mL polythene tube was used to collect bank plasma samples before administering dose of the extract. About 250 μL plasma samples were collected at each collecting points of 5 min, 10 min, 0.25 h, 0.50 h, 0.75 h, 1 h, 2 h, 4 h, 8 h, 12 h, 24 h, and 36 h via fossa orbitalis after dosing. All plasma samples from collecting points need to be centrifuged at 4,000 rpm for ten minutes. The supernatant fluid of centrifuged plasma samples was obtained and immediately stored at −20°C in a refrigerator until they were analyzed.
The maximum concentration (Cmax) and the time to reach the maximum concentration (Tmax) of ten target compounds were directly calculated by the real concentration-time data in the plasma. The data were expressed as mean ± SD.
Ten microliters of ISs solution (contained puerarin, ferulic acid, and artemisinin) and the plasma sample (100 μL) were added into a clean tube, and then acetonitrile (400 μL) was added to precipitate protein. After centrifugation at 14000 rpm for 10 minutes, a mild nitrogen flow was used to evaporate the liquid of the supernatant to dryness. Then, the residue was dissolved in methanol (100 μL). The solution was vortexed for 3 min, mixed for 3 minutes with ultrasound, and centrifuged for 10 min. Finally, the solution (10 μL) was used to detect concentration of ten target compounds in rat plasma.

[2] = Stability of QC samples in rat plasma (24 h, freeze-thaw, 4 weeks); assay type: in vitro ADME; details: six replicates; for 24 h stability Remain (%): 24 hours at 20°C; for Freeze-thaw stability, percent remaining: freeze-thaw cycles −20°C to 20°C; for Long stability Remain (%): stored at −80°C for 4 weeks
Procedure: Stock solution of 10 analytical compounds (1.00 mg·mL^−1) and three internal standards (ISs) was dissolved in methanol and placed in the refrigerator before testing. Methanol was used to prepare ferulic acid (IS1), puerarin (IS2), and artemisinin (IS3) solutions to reach a concentration of 1 μg mL^−1, respectively. A specific volume of each analyte stock solution is mixed together to prepare the standard working solution containing 10 analytes with a concentration of 10 times at LLOQ and three levels (high, medium, and low). Quality control (QC) samples for methodological validation were prepared to obtain the final concentration by adding standard working solution (10 μL) into blank plasma samples (100 μL).
Four concentration levels of ICB and ICA were 4, 12, 400, and 12000 ng mL^−1, respectively. Four concentration levels of caffeic acid were 10, 30, 1000, and 30000 ng·mL^−1, respectively.
In the stability test, 24-hour stability (The samples were placed for 24 hours at 20°C and then measured), freeze-thaw cycles (The sample was injected after the temperature changing from −20°C to 20°C), and 4 weeks stability (The sample was determined after stored at −80°C for 4 weeks) of representative QC samples were all tested. All of them were assayed with six replicates.

[3] = 3.9 g/kg, oral Farfarae Flos extract 3.9 g·kg^−1, mean ± SD
[4] = 7.8 g/kg, oral Farfarae Flos extract 7.8 g·kg^−1, mean ± SD
[5] = oral Farfarae Flos extract 3.9 g·kg^−1, mean ± SD
[6] = oral Farfarae Flos extract 7.8 g·kg^−1, mean ± SD
[7] = high concentration level (3000-30000 ng·mL^−1)
[8] = low concentration level (3-30 ng·mL^−1)
[9] = medium concentration level (100-1000 ng·mL^−1)

SMILES: O=C(/C=C/c1ccc(O)c(O)c1)O[C@H]1[C@H](O)C[C@](O)(C(=O)O)C[C@H]1O [CCLA, cryptochlorogenic acid]
- Cmax [1, 3]: 177 ± 131 ng/mL
- Cmax [1, 4]: > 1000 ng/mL
- Tmax [1, 5]: 0.64 ± 0.2 h
- half-life [1, 5]: 1.03 ± 0.53 h
- MRT last [1, 5]: 4.17 ± 1.73 h
- MRT inf [1, 5]: 5.16 ± 2.01 h
- Tmax [1, 6]: 0.39 ± 0.2 h
- half-life [1, 6]: 1.06 ± 0.58 h
- MRT last [1, 6]: 5.02 ± 2.07 h
- MRT inf [1, 6]: 6.23 ± 2.1 h
- AUC(0–24h) [1, 5]: 422.3 ± 210.5 ng/mL ∗ h
- AUC(0–∞) [1, 5]: 585.7 ± 414.0 ng/mL ∗ h
- AUC(0–24h) [1, 6]: 1938 ± 1401 ng/mL ∗ h
- AUC(0–∞) [1, 6]: 2019 ± 1397 ng/mL ∗ h
- 24 h stability Remain (%) [2, 7]: 112%
- Freeze-thaw stability, percent remaining [2, 7]: 93.2%
- Long stability Remain (%) [2, 7]: 95.9%
- 24 h stability Remain (%) [2, 8]: 98.4%
- Freeze-thaw stability, percent remaining [2, 8]: 96.8%
- Long stability Remain (%) [2, 8]: 97.5%
- 24 h stability Remain (%) [2, 9]: 112%
- Freeze-thaw stability, percent remaining [2, 9]: 82.9%
- Long stability Remain (%) [2, 9]: 98.6%

SMILES: O=C(O)/C=C/c1ccc(O)c(O)c1 [Caffeic acid, caffeic acid]
- Cmax [1, 3]: 96.3 ± 36.6 ng/mL
- Cmax [1, 4]: 106 ± 24.4 ng/mL
- Tmax [1, 5]: 0.23 ± 0.04 h
- half-life [1, 5]: 4.65 ± 4.89 h
- MRT last [1, 5]: 6.47 ± 3.05 h
- MRT inf [1, 5]: 14.8 ± 8.46 h
- Tmax [1, 6]: 0.21 ± 0.04 h
- half-life [1, 6]: 2.75 ± 2.71 h
- MRT last [1, 6]: 4.81 ± 3.64 h
- MRT inf [1, 6]: 15.6 ± 10.5 h
- AUC(0–24h) [1, 5]: 338.9 ± 246.4 ng/mL ∗ h
- AUC(0–∞) [1, 5]: 691.7 ± 477.5 ng/mL ∗ h
- AUC(0–24h) [1, 6]: 473.5 ± 273.8 ng/mL ∗ h
- AUC(0–∞) [1, 6]: 723.9 ± 468.5 ng/mL ∗ h
- 24 h stability Remain (%) [2, 7]: 90.7%
- Freeze-thaw stability, percent remaining [2, 7]: 85.5%
- Long stability Remain (%) [2, 7]: 81.1%
- 24 h stability Remain (%) [2, 8]: 81.1%
- Freeze-thaw stability, percent remaining [2, 8]: 101%
- Long stability Remain (%) [2, 8]: 113%
- 24 h stability Remain (%) [2, 9]: 113%
- Freeze-thaw stability, percent remaining [2, 9]: 87.2%
- Long stability Remain (%) [2, 9]: 109%

SMILES: O=C(C=Cc1ccc(O)c(O)c1)OC1CC(O)(C(=O)O)CC(O)C1OC(=O)C=Cc1ccc(O)c(O)c1 (stereo not shown) [IAC, isochlorogenic acid C]
- Cmax [1, 3]: 47.3 ± 29.6 ng/mL
- Cmax [1, 4]: 265 ± 95.5 ng/mL
- Tmax [1, 5]: 0.56 ± 0.25 h
- half-life [1, 5]: 4.25 ± 6.16 h
- MRT last [1, 5]: 5.79 ± 3.25 h
- MRT inf [1, 5]: 18.7 ± 18.6 h
- Tmax [1, 6]: 0.35 ± 0.21 h
- half-life [1, 6]: 1.37 ± 0.83 h
- MRT last [1, 6]: 8.8 ± 2.73 h
- MRT inf [1, 6]: 13.8 ± 4.86 h
- AUC(0–24h) [1, 5]: 187 ± 85.5 ng/mL ∗ h
- AUC(0–∞) [1, 5]: 319.1 ± 217.3 ng/mL ∗ h
- AUC(0–24h) [1, 6]: 823.4 ± 182.9 ng/mL ∗ h
- AUC(0–∞) [1, 6]: 941.9 ± 204.7 ng/mL ∗ h
- 24 h stability Remain (%) [2, 7]: 97.6%
- Freeze-thaw stability, percent remaining [2, 7]: 93.7%
- Long stability Remain (%) [2, 7]: 106%
- 24 h stability Remain (%) [2, 8]: 91.7%
- Freeze-thaw stability, percent remaining [2, 8]: 106%
- Long stability Remain (%) [2, 8]: 102%
- 24 h stability Remain (%) [2, 9]: 105%
- Freeze-thaw stability, percent remaining [2, 9]: 98.6%
- Long stability Remain (%) [2, 9]: 108%

SMILES: O=c1c(O[C@@H]2O[C@H](CO)[C@@H](O)[C@H](O)[C@H]2O)c(-c2ccc(O)c(O)c2)oc2cc(O)cc(O)c12 [Isoquercitrin, isoquercitrin]
- Cmax [1, 3]: 5.81 ± 5.72 ng/mL
- Cmax [1, 4]: 10.2 ± 6.83 ng/mL
- Tmax [1, 5]: 0.44 ± 0.26 h
- half-life [1, 5]: 0.88 ± 1.01 h
- MRT last [1, 5]: 3.16 ± 3.46 h
- MRT inf [1, 5]: 7.56 ± 6.22 h
- Tmax [1, 6]: 0.27 ± 0.1 h
- half-life [1, 6]: 1.19 ± 1.65 h
- MRT last [1, 6]: 2.81 ± 1.79 h
- MRT inf [1, 6]: 9.94 ± 10.4 h
- AUC(0–24h) [1, 5]: 7.284 ± 5.643 ng/mL ∗ h
- AUC(0–24h) [1, 6]: 16.15 ± 12.24 ng/mL ∗ h
- AUC(0–∞) [1, 6]: 25.18 ± 13.92 ng/mL ∗ h
- 24 h stability Remain (%) [2, 7]: 113%
- Freeze-thaw stability, percent remaining [2, 7]: 110%
- Long stability Remain (%) [2, 7]: 92.3%
- 24 h stability Remain (%) [2, 8]: 84.4%
- Freeze-thaw stability, percent remaining [2, 8]: 104%
- Long stability Remain (%) [2, 8]: 92.0%
- 24 h stability Remain (%) [2, 9]: 113%
- Freeze-thaw stability, percent remaining [2, 9]: 111%
- Long stability Remain (%) [2, 9]: 105%
